Assay results as given in article PMC10823477 (Journal of Medicinal Chemistry, 2023).
Entries after “also recorded” stand apart in the source; their conditions may differ.

Tests used:
5-HT2A receptor = 5-HT2A receptor (Mus musculus, UniProt P35363); assay: head-twitch response; format: in vivo, C57BL/6 mice; conditions: mice, 1 mg/kg p.o.; for HTR induction, result in words: 15–30 min window
[1] = system: mice subjected to a Mild Chronic Stress Paradigm (MCSP); assay: marble-burying test; format: in vivo, C57BL/6 mice; conditions: for marble-burying behavior in stressed mice, 1 day postdose, in words / marble-burying behavior in stressed mice, up to 7 days, in words: MCSP mice, single p.o. dose, psilocybin 1 mg/kg, NPDs 10 mg/kg
[2] = plasma pharmacokinetics of psilocin and parent prodrug in healthy mice; conditions: for psilocin AUC(0–tlast) relative to ES02: 10 mg/kg p.o., within first 8 h; for time up to which parent derivative is detected systemically postdose: plasma parent prodrug
[3] = humans; cited from earlier work
[4] = human participants, 25 mg psilocybin; cited from earlier work

5-HT2A receptor, sequence (P35363 whole entry): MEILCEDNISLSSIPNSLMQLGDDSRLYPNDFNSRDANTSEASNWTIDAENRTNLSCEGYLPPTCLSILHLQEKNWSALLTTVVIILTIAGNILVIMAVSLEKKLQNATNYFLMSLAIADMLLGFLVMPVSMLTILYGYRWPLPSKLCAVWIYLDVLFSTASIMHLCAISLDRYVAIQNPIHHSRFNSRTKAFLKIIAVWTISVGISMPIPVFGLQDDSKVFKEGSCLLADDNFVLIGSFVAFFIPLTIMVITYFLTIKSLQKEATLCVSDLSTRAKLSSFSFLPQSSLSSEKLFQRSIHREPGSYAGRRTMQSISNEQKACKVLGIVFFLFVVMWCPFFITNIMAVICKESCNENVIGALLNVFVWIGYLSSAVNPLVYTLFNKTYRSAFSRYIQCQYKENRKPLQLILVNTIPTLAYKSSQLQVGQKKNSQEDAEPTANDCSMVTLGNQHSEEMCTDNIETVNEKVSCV

## CN(C)CCc1cn(C(=O)OCc2ccccc2)c2cccc(OC(=O)OCc3ccccc3)c12 [C01, Benzyl 4-(((Benzyloxy)carbonyl)oxy)-3-(2-(dimethylamino)ethyl)-1H-indole-1-carboxylate]
5-HT2A receptor
  HTR induction, result in words: ineffective in inducing HTR

## CN(C)CCc1c[nH]c2cccc(OC(=O)OCc3ccccc3)c12 [C02, Benzyl (3-(2-(Dimethylamino)ethyl)-1H-indol-4-yl) Carbonate]
5-HT2A receptor
  HTR induction, result in words: statistically significant psychomimetic effects in healthy mice

## CN(C)CCc1c[nH]c2cccc(OC(=O)OCC3CC3)c12 [C03, Cyclopropylmethyl (3-(2-(Dimethylamino)ethyl)-1H-indol-4-yl) Carbonate]
5-HT2A receptor
  HTR induction, result in words: appeared not to induce a notable hallucinogenic effect

## CCCC(=O)OCOc1cccc2[nH]cc(CCN(C)C)c12 [EE01, ((3-(2-(Dimethylamino)ethyl)-1H-indol-4-yl)oxy)methyl Butyrate]
5-HT2A receptor
  HTR induction, result in words: appeared not to induce a notable hallucinogenic effect

## COc1ccc(C(=O)Oc2cccc3[nH]cc(CCN(C)C)c23)cc1 [ES01, 3-(2-(Dimethylamino)ethyl)-1H-indol-4-yl 4-Methoxybenzoate]
5-HT2A receptor; 1 mg/kg
  HTR induction, result in words: induced HTR at an intensity statistically equivalent to the natural psychedelic compound; also recorded: produced HTR responses equivalent to psilocybin
[1]
  marble-burying behavior in stressed mice, 1 day postdose, in words: significant reduction in marble-burying behavior
  marble-burying behavior in stressed mice, up to 7 days, in words: completely rescuing the elevated anxiety-like condition to the innate behavioral state up to 7 days after treatment
[2]
  psilocin AUC(0–tlast) relative to ES02: greater than twice that of ES02

## CN(C)CCc1c[nH]c2cccc(OC(=O)CC3CC3)c12 [ES02, 3-(2-(Dimethylamino)ethyl)-1H-indol-4-yl 2-cyclopropylacetate]
5-HT2A receptor
  HTR induction, result in words: induced HTR at an intensity statistically equivalent to the natural psychedelic compound
[1]
  marble-burying behavior in stressed mice, 1 day postdose, in words: significant reduction in marble-burying behavior

## CN(C)CCc1c[nH]c2cccc(OC(=O)c3c(F)c(F)c(F)c(F)c3F)c12 [ES03, 3-(2-(Dimethylamino)ethyl)-1H-indol-4-yl 2,3,4,5,6-pentafluorobenzoate]
5-HT2A receptor; 1 mg/kg
  HTR induction, result in words: induced HTR at an intensity statistically equivalent to the natural psychedelic compound; also recorded: produced HTR responses equivalent to psilocybin

## CN(C)CCc1c[nH]c2cccc(OC(=O)c3cccc4c3OCCO4)c12 [ES04, 3-(2-(Dimethylamino)ethyl)-1H-indol-4-yl 2,3-dihydrobenzo[b][1,4]dioxine-5-carboxylate]
5-HT2A receptor
  HTR induction, result in words: appeared not to induce a notable hallucinogenic effect

## CN(C)CCc1c[nH]c2cccc(OP(=O)(O)O)c12 [PCB, psilocybin, reference compound]
[3]
  duration of psychedelic episode from time of dosing: up to 6 h
[4]
  duration of systemic psilocin exposure postadministration: up to 24 h
  time of peak plasma psilocin level: 2 h
5-HT2A receptor
  duration of statistically enhanced HTR relative to vehicle: up to 90 min
  observation window of peak HTR intensity: 15 to 30 min
[1]
  marble-burying behavior in stressed mice, 1 day postdose, in words: significantly reduced number of buried marbles
  marble-burying behavior in stressed mice, up to 7 days, in words: long-term benefits lasting up to 7 days post-treatment
[1]; nonstressed mice, 1 mg/kg p.o.
  effect on innate burying behavior in nonstressed mice: no significant effect on the innate burying behavior in nonstressed mice

## CN(C)CCc1c[nH]c2cccc(O[Si](C)(C)C(C)(C)C)c12 [SE01, 2-(4-((tert-Butyldimethylsilyl)oxy)-1H-indol-3-yl)-N,N-dimethylethanamine]
5-HT2A receptor
  HTR induction, result in words: induced notable HTR
[2]
  time up to which parent derivative is detected systemically postdose: up to 8 h

## CC(C)[Si](Oc1cccc2[nH]cc(CCN(C)C)c12)(C(C)C)C(C)C [SE02, N,N-Dimethyl-2-(4-((triisopropylsilyl)oxy)-1H-indol-3-yl)ethanamine]
5-HT2A receptor
  HTR induction, result in words: induced notable HTR
[2]
  time up to which parent derivative is detected systemically postdose: up to 8 h

## CN(C)CCc1c[nH]c2cccc(OC(=O)SCc3ccccc3)c12 [T01, S-Benzyl O-(3-(2-(Dimethylamino)ethyl)-1H-indol-4-yl) Carbonothioate]
5-HT2A receptor; 1 mg/kg
  HTR induction, result in words: induced notable HTR; also recorded: statistically significant psychomimetic effects in healthy mice
[1]
  marble-burying behavior in stressed mice, 1 day postdose, in words: significant reduction in marble-burying behavior
  marble-burying behavior in stressed mice, up to 7 days, in words: completely rescuing the elevated anxiety-like condition to the innate behavioral state up to 7 days after treatment
[2]; 1 mg/kg i.v., 1 mg/kg
  psilocin (Cmax) produced relative to psilocybin: three to five times greater than psilocybin; also recorded: approximately four times greater psilocin relative to the natural prodrug
[2]
  psilocin AUC(0–tlast) relative to ES02: greater than twice that of ES02
